Columns and labels:
[1] = test system: Vero cells; test: Inhibition assays of NP transport with cytoskeleton-depolymerizing drugs; type: cell-based; conditions: Nocodazole 2.5 µM, Latrunculin A 0.1 µM; 1.5 µM NPs, 37 °C
[2] = Cytotoxicity of inhibitors, trypan blue exclusion; conditions: at working concentrations (Nocodazole 2.5 µM, Latrunculin A 0.1 µM)

Row | Compound | effect of drug on Au@DBP distribution, movement and spread [1] | cytotoxicity (cell death) after drug incubation [2]
1 | C/C1=C/C(=O)O[C@@H]2C[C@@H](CC[C@H](C)/C=C\C=C\CC1)O[C@@](O)([C@@H]1CSC(=O)N1)C2 [Latrunculin A] | did not stop | ≤ 10%
2 | COC(=O)Nc1nc2ccc(C(=O)c3cccs3)cc2[nH]1 [Nocodazole] | reversibly stopped | ≤ 10%
